According to ChEMBL document CHEMBL4043189, “Design, synthesis, and evaluation of substituted nicotinamide adenine dinucleotide (NAD+) synthetase inhibitors as potential antitubercular agents” (Bioorg Med Chem Lett, 2017):
In brackets after ≈: the same amount, converted by molar mass.

Assays:
[1] = system: Mycobacterium tuberculosis; assay: Antitubercular activity against Mycobacterium tuberculosis H37Rv incubated for 7 days under anaerobic condition measured by broth microdilution method; type: functional; conditions: 168 h
[2] = system: Mycobacterium tuberculosis; assay: Antitubercular activity against Mycobacterium tuberculosis H37Rv ATCC 27294 grown under Middlebrook 7H9 broth after 2 weeks by microscopic analysis; type: functional; conditions: H37Rv ATCC 27294, 336 h
[3] = Inhibition of recombinant Mycobacterium tuberculosis glutamine-dependent NadE using NAAD as substrate assessed as residual activity preincubated for 20 mins followed L-glutamine addition measured over 40 mins by spectrophotometric based PNP enzyme coupled assay
[4] = system: Mycobacterium tuberculosis; assay: Antitubercular activity against NRP-2 stage of Mycobacterium tuberculosis H37Rv ATCC 27294 grown under glycerol free dubos broth after 7 days by microscopic analysis; type: functional; conditions: H37Rv ATCC 27294, 168 h
[5] = Inhibition of recombinant Mycobacterium tuberculosis NH3-dependent NadE using NAAD as substrate assessed as residual activity preincubated for 20 mins followed NH4Cl addition measured over 40 mins by spectrophotometric based PNP enzyme coupled assay
Bacillus anthracis = assay: Antibacterial activity against Bacillus anthracis Sterne spore forms measured every hour for 5 hrs by broth microdilution method; type: functional
[6] = Inhibition of Bacillus anthracis NadE using guanidine-HCl as substrate after 10 mins by HPLC analysis

Compound | MIC [1] [µM] | MIC [2] [µg/mL] | IC50 [3] [µM] | MIC [4] [µg/mL] | IC50 [5] [µM] | MIC (Bacillus anthracis) [µM] | IC50 [6] [µM]
COC(=O)c1cc2cc(OCc3ccccc3)ccc2n1CCCCCCCOC(=O)Cc1ccc([N+](C)(C)C)cc1 | 20 |  |  |  |  |  | 
O=C(Nc1ccc([N+](=O)[O-])cc1)Nc1ccc(S(=O)(=O)Nc2ccc(I)cc2)cc1 |  | 37 (≈ 68.7 µM) | 370 | 50 (≈ 92.9 µM) |  |  | 
COc1ccc(NS(=O)(=O)c2ccc(NC(=O)Nc3ccc([N+](=O)[O-])cc3)cc2)cc1 |  | 25 (≈ 56.5 µM) | 130 | 50 (≈ 113 µM) | > 200 |  | 
O=C(Nc1ccc([N+](=O)[O-])cc1)Nc1ccc(S(=O)(=O)Nc2cccc(C(F)(F)F)c2)cc1 |  | 37 (≈ 77 µM) | 130 | 50 (≈ 104 µM) | > 200 |  | 
O=C(Nc1ccc([N+](=O)[O-])cc1)Nc1ccc(S(=O)(=O)Nc2cccc([N+](=O)[O-])c2)cc1 |  | 25 (≈ 54.7 µM) | 170 | 12.5 (≈ 27.3 µM) |  |  | 
O=C(Nc1ccc([N+](=O)[O-])cc1)Nc1ccc(S(=O)(=O)Nc2ccc([N+](=O)[O-])cc2)cc1 |  | 37 (≈ 80.9 µM) | 90 | 25 (≈ 54.7 µM) | > 200 |  | 
O=C(Nc1ccc([N+](=O)[O-])cc1)Nc1ccc(S(=O)(=O)Nc2ccc(O)cc2)cc1 |  | 37 (≈ 86.4 µM) | 160 | 50 (≈ 117 µM) |  |  | 
O=C(Nc1ccc([N+](=O)[O-])cc1)Nc1ccc(S(=O)(=O)Nc2ccc(Cl)cc2)cc1 |  | 25 (≈ 55.9 µM) | 520 | 37 (≈ 82.8 µM) |  |  | 
O=C(Nc1ccc([N+](=O)[O-])cc1)Nc1ccc(S(=O)(=O)Nc2ccc(F)cc2)cc1 |  | 19 (≈ 44.1 µM) | 170 | 25 (≈ 58.1 µM) |  |  | 
O=C(Nc1ccc([N+](=O)[O-])cc1)Nc1ccc(S(=O)(=O)Nc2ccc([N+](=O)[O-])c(C(F)(F)F)c2)cc1 |  | 100 (≈ 190 µM) | 190 | 50 (≈ 95.2 µM) |  |  | 
N#Cc1ccc(NS(=O)(=O)c2ccc(NC(=O)Nc3ccc([N+](=O)[O-])cc3)cc2)cc1 |  | 37 (≈ 84.6 µM) | 190 | 37 (≈ 84.6 µM) |  |  | 
NCc1ccc(S(=O)(=O)Nc2ccc(NC(=O)Nc3cccc([N+](=O)[O-])c3)cc2)cc1 |  |  |  |  |  | > 240 | 15.3
O=C(Nc1ccc([N+](=O)[O-])cc1)Nc1ccc(S(=O)(=O)Nc2ccccc2)cc1 |  | 75 (≈ 182 µM) | 125 | 12.5 (≈ 30.3 µM) | > 200 |  | 
O=C(Nc1ccc([N+](=O)[O-])cc1)Nc1ccc(S(=O)(=O)Nc2ccc(Cl)c(Cl)c2)cc1 |  | 25 (≈ 51.9 µM) | 1000 | 50 (≈ 104 µM) |  |  | 6.4
NNC(=O)c1ccncc1 [ISONIAZID] |  | 0.05 (≈ 0.365 µM) |  | 0.03 (≈ 0.219 µM) |  |  | 
